# From patent US20110318403A1, “Preparation and Use of Pouteria Lucuma Extract” (priority 2008, published 2011)
# Key:
# [1] = test system: dermal wounds of CD-1 mice; test: CD-1 mouse excision wound healing assay; type: in vivo; conditions: topical once daily, 10 μg/mouse, CT50 ± SE
# Procedure: The LNO extract of Example 1 was further used in two in vivo models to assess wound healing and regeneration. […] In this experiment, a 12 mm skin punch was used to create a wound in mice and the mice were then divided into three groups, i.e., a negative control group, an experimental group and a positive control group. Immediately following wounding, the wounds were treated for ten days with either vehicle (0.5% carboxymethylcellulose in PBS), lucuma nut oil (LNO) (200 μg/mouse) in vehicle, or the positive control CGS-21680 (CAS120225-54-9, a specific adenosine A2A receptor agonist offered commercially by Tocris; see U.S. Pat. No. 4,968,697), also in vehicle. […] Wound healing assays were performed by MDS Pharma Services, Taiwan, MDSPS Testing Code 1115924, according to the protocol describe elsewhere (Kapoor, et al., J. Clin. Invest., 118:3279-3290 (2008); Montesinos, et al., J. Exp. Med., 186:1615-1620 (1997), each description incorporated herein by reference). Briefly, groups of 5 male CD-1 mice weighing 22±2 g were used for this assay. […] The wounded area was traced onto clear plastic sheets on days 3, 5, 7, 9 and 11 and quantitated by using an Image Analyzer (Life Science Resources VISTA, Version 30). […]
# [2] = test system: transgenic zebrafish larvae tail fin (GFP-positive endothelial cells); test: zebrafish larvae tailfin primordia amputation regeneration / angiogenesis assay; type: in vivo; conditions: 48 hours after amputation
# Excerpt: A tailfin model of in vivo wound healing and regeneration was also used to assess the ability of a lucuma nut oil extract to promote appropriate wound healing, and the results of these assays also provided information on the angiogenic properties of LNO. In this transgenic model, the fli1 promoter drives expression of green fluorescent protein (GFP) in all the vascular endothelial cells, which allows tracking of wound healing in real time by direct observation of angiogenesis. Forty-eight-hour-old or five-day-old zebrafish larvae (AB strain) were anesthetized in 0.04% 3-amino benzoic acid ethylester (tricaine; MS-222) and placed in 2% agar Petri dishes. Surgical blades were used to amputate tailfin primordia just posterior to the notochord. Larvae were placed in 24-well plates containing either water (control), CGS-21680 (50 μg/mL; CAS120225-54-9) or LNO (10-100 μg/mL in water) and incubated at 28° C. Primordia re-growth was measured using fluorescence microscopy and image analysis of fluorescent endothelial cells. For this assay, the fin fluorescent area was normalized against the total fin area. […] The effects of LNO were analyzed and compared to the positive control CGS-21680 (2-p-(2-Carboxyethyl)phenethylamino-5′-N-ethylcarboxamidoadenosine). […]
# [3] = test system: Human neonatal fibroblasts; test: scratched fibroblast assay (wound closure of monolayer); type: cell-based; conditions: equivalent concentrations of pure FAs (LA 24 μg/mL, OA 18 μg/mL), 24 hours
# Procedure: Human neonatal fibroblasts were maintained in Dulbecco's Modified Eagle Medium (D-MEM)+10% fetal bovine serum (FBS) and were kept in a humidified 37° C. incubator with 5% CO2. Cells were plated at a density of 1×10^4 cells per well in a 24-well plate and incubated for 24 hours, or until 100% confluency was reached. Each monolayer was wounded by dragging a pipette tip across the bottom of the well, using a straight edge as a guide (approximately 1.3 mm in width). The media was removed and cells were washed with 500 μL PBS twice to remove detached cells or cell debris. The cells were treated as follows: DMEM+10% FBS+vehicle (0.06% glycerol, positive control), DMEM+vehicle (0.06% glycerol, negative control), DMEM+vehicle (0.06% glycerol)+LNO (60 μg/mL), DMEM+vehicle (0.06% glycerol)+LA (24 μg/mL) and DMEM+vehicle (0.06% glycerol)+OA (18 μg/mL). Photos were taken of each well to measure the initial area of the wound. After 24 hours incubation, wells were photographed again. The scratched area was measured using […] Photoshop CS software, and percentage of wound closure at each time point was derived by the following formula: (1−[current wound size/initial wound size])×100.
SMILES,Dermal wound closure expressed as half-closure time (CT50) [1] [days],GFP-positive endothelial cells in regenerating tail fin (angiogenesis) [2],cell migration in scratched fibroblasts compared with LNO 60 μg/mL [3]
"CCNC(=O)[C@H]1O[C@@H](n2cnc3c(N)nc(NCCc4ccc(CCC(=O)O)cc4)nc32)[C@H](O)[C@@H]1O [CGS, 2-p-(2-Carboxyethyl)phenethylamino-5′-N-ethylcarboxamidoadenosine]",6.04 ± 0.2,–,–
"CCCCC/C=C\C/C=C\CCCCCCCC(=O)O [LA, linoleic acid]",–,not found,not able to reproduce the effect of LNO in cell migration
"CCCCCCCC/C=C\CCCCCCCC(=O)O [OA, oleic acid]",–,not found,not able to reproduce the effect of LNO in cell migration
